Molecular target: human opioid receptor-like (ORL-1) (Homo sapiens (Human), UniProt P41146)
Experiment: In vitro ORL-1 receptor [35S]GTPγS functional assay
Type: biochemical

human opioid receptor-like (ORL-1), sequence (P41146 whole entry): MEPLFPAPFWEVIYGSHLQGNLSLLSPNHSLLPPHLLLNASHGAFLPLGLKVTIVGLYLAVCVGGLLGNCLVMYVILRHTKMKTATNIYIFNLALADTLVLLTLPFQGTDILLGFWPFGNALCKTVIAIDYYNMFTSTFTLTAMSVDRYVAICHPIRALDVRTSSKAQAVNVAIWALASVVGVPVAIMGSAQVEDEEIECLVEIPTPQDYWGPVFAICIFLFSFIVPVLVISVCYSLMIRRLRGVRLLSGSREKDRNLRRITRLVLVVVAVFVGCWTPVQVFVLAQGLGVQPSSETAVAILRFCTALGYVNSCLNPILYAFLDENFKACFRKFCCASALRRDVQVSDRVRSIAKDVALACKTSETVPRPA

Molecule `O=C(O)CN1CCC[C@@H]1c1nc2ccccc2n1[C@H]1C[C@H]2CCC[C@@H](C1)N2C1CCCCCCCCC1` [E30c(ii), 2-((R)-2-(1-((1R,3r,5S)-9-cyclodecyl-9-azabicyclo[3.3.1]nonan-3-yl)-1H-benzo[d]imidazol-2-yl)pyrrolidin-1-yl)acetic acid] has an EC50 of 336 ± 27 nM.
`O=C(O)CCN1CC[C@H](c2nc3ccccc3n2[C@H]2C[C@H]3CCC[C@@H](C2)N3[C@@H]2C[C@@H]3CCCC[C@@H](C3)C2)C1` [H32d(ii), 3-((S)-3-(1-((1R,3R,5S)-9-((1R,6S,8s)-bicyclo[4.3.1]decan-8-yl)-9-azabicyclo[3.3.1]nonan-3-yl)-1H-benzo[d]imidazol-2-yl)pyrrolidin-1-yl)propanoic acid] gave an EC50 of 160 ± 35 nM.
`O=C(O)CN1CCC(c2nc3ccccc3n2[C@H]2C[C@H]3CCC[C@@H](C2)N3[C@@H]2C[C@@H]3CCCC[C@@H](C3)C2)CC1` [ZA07, 2-(4-(1-((1R,3R,5S)-9-((1R,6S,8s)-bicyclo[4.3.1]decan-8-yl)-9-azabicyclo[3.3.1]nonan-3-yl)-1H-benzo[d]imidazol-2-yl)piperidin-1-yl)acetic acid] showed an EC50 of 140 ± 17 nM.
`O=C(O)CCN1CCC(c2nc3ccccc3n2[C@H]2C[C@H]3CCC[C@@H](C2)N3[C@@H]2C[C@@H]3CCCC[C@@H](C3)C2)CC1` [ZA08, 3-(4-(1-((1R,3R,5S)-9-((1R,6S,8s)-bicyclo[4.3.1]decan-8-yl)-9-azabicyclo[3.3.1]nonan-3-yl)-1H-benzo[d]imidazol-2-yl)piperidin-1-yl)propanoic acid] was tested, and the EC50 was 253 ± 20 nM.
`COCCOCCOCCN1CCC[C@@H](c2nc3ccccc3n2[C@H]2C[C@H]3CCC[C@@H](C2)N3[C@H]2C[C@@H]3CCC[C@@H](C3)C2)C1` [ZA11, (1R,1′R,3r,3′R,5S,5′S)-3′-(2-((R)-1-(2-(2-(2-methoxyethoxy)ethoxy)ethyl)piperidin-3-yl)-1H-benzo[d]imidazol-1-yl)-9′-aza-3,9′-bi(bicyclo[3.3.1]nonane)] showed an EC50 of 502 ± 99 nM.
In the case of `COCCOCCOCCN1CCC[C@H](c2nc3ccccc3n2[C@H]2C[C@H]3CCC[C@@H](C2)N3[C@H]2C[C@@H]3CCC[C@@H](C3)C2)C1` [ZA12, (1R,1′R,3r,3′R,5S,5′S)-3′-(2-((S)-1-(2-(2-(2-methoxyethoxy)ethoxy)ethyl)piperidin-3-yl)-1H-benzo[d]imidazol-1-yl)-9′-aza-3,9′-bi(bicyclo[3.3.1]nonane)], the EC50 is reported as 390 ± 34 nM.
`O=C(O)C1CCN(Cc2nc3ccccc3n2[C@H]2C[C@H]3CCC[C@@H](C2)N3[C@H]2C[C@@H]3CCC[C@@H](C3)C2)CC1` [ZA23, 1-((1-((1R,1′R,3r,3′R,5S,5′S)-[3,9′-bi(9′-azabicyclo[3.3.1]nonan)]-3′-yl)-1H-benzo[d]imidazol-2-yl)methyl)piperidine-4-carboxylic acid] was tested, and the EC50 was over 20000 nM.
In the case of `c1ccc2c(c1)nc(-c1nnn[nH]1)n2[C@H]1C[C@H]2CCC[C@@H](C1)N2[C@@H]1C[C@@H]2CCCC[C@@H](C2)C1` [ZA39, 1-((1R,3R,5S)-9-((1R,6S,8r)-bicyclo[4.3.1]decan-8-yl)-9-azabicyclo[3.3.1]nonan-3-yl)-2-(1H-tetrazol-5-yl)-1H-benzo[d]imidazole], the EC50 is reported as over 20000 nM.
`COc1cnc(-c2nc3ccccc3n2[C@H]2C[C@H]3CCC[C@@H](C2)N3[C@@H]2C[C@@H]3CCCC[C@@H](C3)C2)cn1` [ZA42, 1-((1R,3R,5S)-9-((1R,6S,8r)-bicyclo[4.3.1]decan-8-yl)-9-azabicyclo[3.3.1]nonan-3-yl)-2-(5-methoxypyrazin-2-yl)-1H-benzo[d]imidazole] gave an EC50 of over 20000 nM.
Work on `COc1cnc(-c2nc3ccccc3n2[C@H]2C[C@H]3CCC[C@@H](C2)N3[C@H]2C[C@@H]3CCC[C@@H](C3)C2)cn1` [ZA63, (1R,1′R,3r,3′R,5S,5′S)-3′-(2-(5-methoxypyrazin-2-yl)-1H-benzo[d]imidazol-1-yl)-9′-aza-3,9′-bi(bicyclo[3.3.1]nonane)] yielded an EC50 of over 20000 nM.
`O=c1cc(-c2nc3ccccc3n2[C@H]2C[C@H]3CCC[C@@H](C2)N3[C@@H]2C[C@@H]3CCCC[C@@H](C3)C2)[nH]c(=O)[nH]1` [ZA71, 6-(1-((1R,3R,5S)-9-((1R,6S,8r)-bicyclo[4.3.1]decan-8-yl)-9-azabicyclo[3.3.1]nonan-3-yl)-1H-benzo[d]imidazol-2-yl)pyrimidine-2,4(1H,3H)-dione] gave an EC50 of over 20000 nM.

Source: US9090618B2, “Substituted benzimidazole-type piperidine compounds and uses thereof” (priority 2012, dated 2015)
